Reference: patent publication US9867811B2, “Method of treating atherosclerosis in high triglyceride subjects” (NOVARTIS AG, priority 2011, dated 2018)

Columns and labels:
CETP [1] = assay: Ex vivo plasma CETP activity assay with exogenously added compound (maximum inhibition); format: biochemical; details: 10 μM, hamster plasma (80% plasma)
Description: Plasma CETP activity ex vivo was determined as followed: 50 μL of hamster plasma (final 80% plasma) was mixed with 10 μL of donor solution diluted with assay buffer composed of 50 mM Tris-HCl (pH7.4) containing 150 mM NaCl and 2 mM EDTA in a 96-well half area black flat bottom plate (Cat. No. 3686, Corning, Corning, N.Y.). Fluorescence intensity was measured every 15 min at an excitation wave length of 485 nm and an emission wavelength of 535 nm for 120 min at 37° C. using ARVO SX+L (PerkinElmer, Wellesley, Mass.). CETP activity (RFU/min) was defined as the change in fluorescence intensity from 30 to 90 min.

CETP [2] = assay: Ex vivo CETP activity in plasma of hamsters (saline or Triton WR-1339 treated); details: hamster; for Inhibition of plasma CETP activity: saline group, 8 h after dose; for Extent of CETP inhibition reduced by, relative to the saline group (74% inhibition): 10 mg/kg oral; for Increase in plasma CETP activity: 3 h after administration
Description: Nine- to ten-week-old, male golden Syrian hamsters were purchased from Japan SLC Inc. (Shizuoka, Japan). Animals underwent a more than 1-week acclimation period under the following conditions: 8:00/20:00 light/dark cycle, room temperature 23±2° C. […] During this time, animals received filtered (0.5 μm) water and a standard chow diet ad libitum.
Whole blood samples were collected using a heparin-washed syringe (Heparin sodium injection “Ajinomoto”; Ajinomoto, Tokyo, Japan) from the abdominal vein by venipuncture under isoflurane (Abbott Japan Co. Ltd.) inhalant anesthesia. After centrifugation at 15,000 rpm for 10 min at 4° C., heparinized plasma was prepared and stored at −80° C. until use.
CETP activity (RFU/min) was defined as the change in fluorescence intensity from 30 to 90 min.
The effect of an acute increase of plasma triglycerides in vivo (acute increase in triglyceride-rich particles) on the ability of Torcetrapib to alter plasma CETP activity, triglyceride and total cholesterol levels was investigated. Torcetrapib at doses of 3, 10 or 30 mg/kg or vehicle was administered once by gavage to hamsters fed a standard chow diet.
Compound or vehicle was administered once by gavage to hamsters fed a standard chow diet.

[3] = Total cholesterol and triglyceride concentrations in hamster plasma; format: in vivo; details: for Increase in plasma total cholesterol / Increase in plasma triglycerides: 3 h after administration
Description: Nine- to ten-week-old, male golden Syrian hamsters were purchased from Japan SLC Inc. (Shizuoka, Japan). Animals underwent a more than 1-week acclimation period under the following conditions: 8:00/20:00 light/dark cycle, room temperature 23±2° C. (range), 55±15% (range) humidity. During this time, animals received filtered (0.5 μm) water and a standard chow diet ad libitum.
(§1) To induce an acute increase in plasma triglyceride levels, Triton WR-1339 (Cat. No. 35418-12, Nacalai Tesque Inc, Kyoto, Japan) was dissolved in saline (Otsuka Normal Saline, Otsuka Pharmaceuticals, Tokushima, Japan) at a concentration of 2.5 to 10% (w/w), and was intravenously administered at a volume of 2 mL/kg from the basilic vein under isoflurane (FORANE®, Abbott Japan Co. Ltd., Tokyo, Japan) inhalant anesthesia. Whole blood samples were collected using a heparin-washed syringe (Heparin sodium injection “Ajinomoto”; Ajinomoto, Tokyo, Japan) from the abdominal vein by venipuncture under isoflurane (Abbott Japan Co. Ltd.) inhalant anesthesia. After centrifugation at 15,000 rpm for 10 min at 4° C., heparinized plasma was prepared and stored at −80° C. until use.
Compounds (CETP inhibitors) were suspended in 0.5% methyl cellulose (Methyl cellulose 400 cP, Cat. No. 138-05072, Wako Pure Chemical Industries, Osaka, Japan) solution, which was used as a vehicle. Compound or vehicle (10 mL/kg) was administered once by oral gavage 5 h before administration of Triton WR-1339.
Cholesterol and triglyceride concentrations in plasma and serum were measured manually with kits (Cholesterol E-test, Cat. No. 439-17501, and Triglyceride E-test, Cat. No. 432-40201, Wako Pure Chemical, Osaka, Japan).

CETP [4] = assay: Plasma CETP concentrations (ELISA) in hamsters; format: in vivo; details: hamster, Triton WR-1339 i.v., any dose
Description: as §1
Plasma CETP concentrations were measured using an enzyme-linked […] assay (ELISA) kit (Cat No. 278181, Daiichi Pure Chemicals, Tokyo, Japan). Recombinant human CETP protein was used as a standard. Hamster plasma was diluted 250-fold by the dilution buffer in the kit, and then CETP concentration was measured according to the manufacturer's protocol.

[5] = HPLC lipoprotein analysis in hamster plasma; format: in vivo
Description: as §1
An HPLC-size exclusion chromatography system with an on-line enzymatic dual detection system for lipids has been used for lipoprotein analysis. Plasma samples were diluted (5-fold) with saline after filtration (0.45 μm, Millipore Co, Cat. No. UFC30HV00) and injected into the HPLC system at a volume of 100 μL (as 20 μL of plasma), every 95 min, using an auto-sampler. Plasma lipoproteins were separated using a single Superose 6 column and filtered phosphate buffered saline (0.45 μm, Millipore Co., Bedford, Mass., Cat. No. SJHVM4710; PBS, Dainippon Pharmaceutical, Osaka, Japan Cat. No. 28-103-05 FN) at a flow rate of 0.5 mL/min. Each enzymatic reagent was pumped at a flow rate of 0.25 mL/min. Both enzymatic reactions proceeded at 37° C. in a reactor coil (Teflon tube, 15 m×0.4 mm id) in the column oven. The color developed after the enzyme reaction was measured at 580 nm, and the electric signal was monitored (every 0.5 second).
A control pooled EDTA-plasma sample was used to standardize the cholesterol and phospholipid levels in lipoproteins. Cholesterol and phospholipid levels in the control plasma were measured manually with kits (Cholesterol E-test, Cat. No. 439-17501, and Phospholipid C-test, Cat. No. 433-36201, respectively, Wako Pure Chemical Industries), and the concentrations were 121.8 and 216.8 mg/dL, respectively. Concentrations of VLDL, LDL, and HDL-cholesterol and -phospholipid levels were calculated using chromatogram areas observed for control hamster plasma samples. With this methodology, the retention times of control hamster VLDL, LDL, and HDL were 18.5-24.0, 24.0-30.5, and 31.5-42.0 min, respectively.

Molecule: CCOC(=O)N1c2ccc(C(F)(F)F)cc2[C@@H](N(Cc2cc(C(F)(F)F)cc(C(F)(F)F)c2)C(=O)OC)C[C@H]1CC [Torcetrapib]
- Maximum inhibition of CETP activity, compound exogenously added, Triton WR-1339 group (CETP [1]; Triton WR-1339 group): around 75%
- Maximum inhibition of CETP activity, compound exogenously added, saline group (CETP [1]; saline group): ~100%
- Differences between the saline and WR-1339 groups in the extent of CETP inhibition (CETP [2]; 3 mg/kg oral gavage): 5.5%
- Inhibition of plasma CETP activity (CETP [2]; 3 mg/kg oral gavage): 38%
- Differences between the saline and WR-1339 groups in the extent of CETP inhibition (CETP [2]; 10 mg/kg oral gavage): 13%
- Inhibition of plasma CETP activity (CETP [2]; 10 mg/kg oral gavage): 74%
- Extent of CETP inhibition reduced by, relative to the saline group (74% inhibition) (CETP [2]; Triton WR-1339 50 mg/kg i.v.): 44%
- Extent of CETP inhibition reduced by, relative to the saline group (74% inhibition) (CETP [2]; Triton WR-1339 100 mg/kg i.v.): 13%
- Differences between the saline and WR-1339 groups in the extent of CETP inhibition (CETP [2]; 30 mg/kg oral gavage (P<0.01)): 35%
- Inhibition of plasma CETP activity (CETP [2]; 30 mg/kg oral gavage): 88%
- Inhibition of CETP activity, lower dose group, Triton WR-1339 group (CETP [2]; oral gavage: Torcetrapib 5 mg/kg, Anacetrapib 1.5 mg/kg, Example 49 1.5 mg/kg, Example 8 0.75 mg/kg, Triton WR-1339 100 mg/kg i.v., not significant vs vehicle): 13%
- Inhibition of CETP activity, lower dose group, saline group (CETP [2]; oral gavage: Torcetrapib 5 mg/kg, Anacetrapib 1.5 mg/kg, Example 49 1.5 mg/kg, Example 8 0.75 mg/kg, saline i.v.): 60%
- Inhibition of CETP activity, higher dose group, Triton WR-1339 group (CETP [2]; oral gavage: Torcetrapib 10 mg/kg, Anacetrapib 3 mg/kg, Example 49 3 mg/kg, Example 8 1.5 mg/kg, Triton WR-1339 100 mg/kg i.v.): 8%
- Inhibition of CETP activity, higher dose group, saline group (CETP [2]; oral gavage: Torcetrapib 10 mg/kg, Anacetrapib 3 mg/kg, Example 49 3 mg/kg, Example 8 1.5 mg/kg, saline i.v.): 75%
- Effect on plasma triglycerides ([3]; Triton WR-1339 treatment groups): did not affect
- Effect on plasma triglyceride levels ([3]; saline group, 3 and 30 mg/kg oral doses): slightly, but significantly, lowered
- Effect on total cholesterol levels ([3]; saline or Triton WR-1339 groups): not changed

Molecule: Triton WR-1339
- Increase in plasma CETP activity (CETP [2]; Triton WR-1339 50 mg/kg i.v.): 1.7 fold
- Increase in plasma CETP activity (CETP [2]; Triton WR-1339 100 mg/kg i.v.): 3.7 fold
- Effect on plasma CETP concentrations (CETP [4]): did not significantly affect
- Effect on HDL-cholesterol ([5]; Triton WR-1339 50 mg/kg i.v.): not changed
- Effect on HDL-cholesterol ([5]; Triton WR-1339 100 mg/kg i.v.): reduced
- Effect on LDL-cholesterol ([5]; Triton WR-1339 i.v.): reduced
- Effect on cholesterol content of VLDL ([5]; Triton WR-1339 i.v. compared to saline group): increased
- Increase in plasma total cholesterol ([3]; Triton WR-1339 50 mg/kg i.v.): 1.2 fold
- Increase in plasma triglycerides ([3]; Triton WR-1339 50 mg/kg i.v.): 2.0 fold
- Increase in plasma total cholesterol ([3]; Triton WR-1339 100 mg/kg i.v.): 1.4 fold
- Increase in plasma triglycerides ([3]; Triton WR-1339 100 mg/kg i.v.): 4.0 fold
- Time of maximum increase in triglyceride levels after administration ([3]; Triton WR-1339 50, 100 or 200 mg/kg i.v.): 8 h
